One assay deals with Candida albicans. As to the kind of experiment: Antifungal activity against Candida albicans by colorimetric method. Format: functional, organism-based.
The subject of assay [1] is Plasmodium falciparum. As to the kind of experiment: Antimalarial activity as growth inhibition of Plasmodium falciparum K1 by [3H]hypoxanthine uptake. Format: functional, organism-based.
In a further assay the test system is KB. As to the kind of experiment: Cytotoxicity against human KB cells at 20 ug/mL. Format: functional, cell-based.
The test system of assay [2] is Plasmodium falciparum. As to the kind of experiment: Antimalarial activity as growth inhibition of Plasmodium falciparum K1 at 20 ug/mL by [3H]hypoxanthine uptake. It is filed as functional, organism-based.
Another assay has as its system BC1. Briefly: Cytotoxicity against human BC1 cells at 20 ug/mL. Format: functional, cell-based.

Values after ≈ are worked out from the molar mass of the structure shown. Active and inactive are the calls of the source. No cut-off for these calls is given here.

Our source for the IC50 and Activity values is ChEMBL document CHEMBL1155734, “Multiplolides A and B, new antifungal 10-membered lactones from Xylaria multiplex” (J Nat Prod, 2001).

For orientation: IC50 means the concentration at which inhibition is half-maximal. In the assay on Candida albicans, `C[C@@H]1[C@H](O)[C@@H](C)/C=C/C=C/C=C/C=C/C=C/C=C/C=C/[C@H](O[C@@H]2O[C@H](C)[C@@H](O)[C@H](N)[C@@H]2O)C[C@@H]2O[C@](O)(C[C@@H](O)C[C@@H](O)[C@H](O)CC[C@@H](O)C[C@@H](O)CC(=O)O[C@H]1C)C[C@H](O)[C@H]2C(=O)O` [AMPHOTERICIN B] came in with an IC50 of 0.01 µg/mL (≈ 0.0108 µM).

`C[C@@H]1CC[C@H]2[C@@H](C)C(=O)O[C@@H]3O[C@@]4(C)CC[C@@H]1[C@]32OO4` [ARTEMISININ] displayed an IC50 in the assay on Plasmodium falciparum [1] of 0.001 µg/mL (≈ 0.00354 µM).

For `C[C@@H]1C[C@@H](O)[C@@H](O)/C=C/[C@@H]2O[C@@H]2C(=O)O1` [MULTIPLOLIDE A], the result in the assay with KB, in the assay on Plasmodium falciparum [2] and in the assay on BC1 was inactive. Also, the IC50 in the assay with Candida albicans turned out to be 7 µg/mL (≈ 32.7 µM).

For `C/C=C/C(=O)O[C@@H]1C[C@@H](C)OC(=O)C2OC2/C=C/[C@@H]1O` (stereo not given in full) [MULTIPLOLIDE B], the outcome in the assay on KB, in the assay with Plasmodium falciparum [2] and with BC1 was inactive. Moreover, the midpoint of inhibition in the assay with Candida albicans, the IC50, lay at 2 µg/mL (≈ 7.08 µM).
